Results from patent US20200239530A1, “COMPOUNDS AND METHODS OF MODULATING PROTEIN DEGRADATION” (Vividion Therapeutics, Inc., priority 2017, published 2020).

Target: T1, FAM120A Constitutive coactivator of PPAR-gamma-like protei (Homo sapiens, UniProt Q9NZB2)
T1 construct: 200 μL of lysate containing 5 mg/ml proteome was treated with 2 μL of 100× compound stock; endogenous in cells
T1 sequence (Q9NZB2 1-1118): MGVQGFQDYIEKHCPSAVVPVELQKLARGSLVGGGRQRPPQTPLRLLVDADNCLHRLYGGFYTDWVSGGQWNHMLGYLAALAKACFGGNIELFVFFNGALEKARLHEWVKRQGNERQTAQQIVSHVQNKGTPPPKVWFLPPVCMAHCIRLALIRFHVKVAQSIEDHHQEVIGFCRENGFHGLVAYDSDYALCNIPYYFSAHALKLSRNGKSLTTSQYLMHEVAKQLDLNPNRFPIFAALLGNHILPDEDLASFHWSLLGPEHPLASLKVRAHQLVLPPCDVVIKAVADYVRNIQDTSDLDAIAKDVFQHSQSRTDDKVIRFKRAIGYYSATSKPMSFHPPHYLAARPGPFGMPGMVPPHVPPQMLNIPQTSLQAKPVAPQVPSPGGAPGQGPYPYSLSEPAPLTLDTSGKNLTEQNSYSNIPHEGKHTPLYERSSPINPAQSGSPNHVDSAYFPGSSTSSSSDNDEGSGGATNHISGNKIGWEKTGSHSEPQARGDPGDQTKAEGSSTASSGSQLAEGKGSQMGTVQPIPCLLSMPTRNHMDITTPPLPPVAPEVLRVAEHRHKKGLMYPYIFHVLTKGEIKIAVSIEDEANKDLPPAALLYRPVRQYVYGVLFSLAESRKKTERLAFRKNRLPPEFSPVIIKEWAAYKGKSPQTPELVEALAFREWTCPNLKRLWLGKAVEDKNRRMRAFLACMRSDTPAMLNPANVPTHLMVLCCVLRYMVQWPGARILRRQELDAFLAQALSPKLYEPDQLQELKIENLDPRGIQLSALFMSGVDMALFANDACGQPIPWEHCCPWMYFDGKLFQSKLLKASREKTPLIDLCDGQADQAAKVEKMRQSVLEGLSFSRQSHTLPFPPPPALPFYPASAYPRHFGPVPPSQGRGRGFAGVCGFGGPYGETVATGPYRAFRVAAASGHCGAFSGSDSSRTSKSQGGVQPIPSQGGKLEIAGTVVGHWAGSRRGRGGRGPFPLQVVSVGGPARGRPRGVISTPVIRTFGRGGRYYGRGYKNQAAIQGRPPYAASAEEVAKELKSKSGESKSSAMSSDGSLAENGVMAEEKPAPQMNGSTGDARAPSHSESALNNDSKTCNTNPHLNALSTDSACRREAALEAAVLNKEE
Test: Cysteine liganding, probe competition
Type: binding
Outline: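 Lysates from probe-sonicated cells in PBS (5 mg/ml proteome) were exposed to compound for 1 hr at 25° C, then labelled with desthiobiotin iodoacetamide probe (10 mM stock) for 1 hr at 25° C. Probe-tagged peptides were streptavidin-enriched after trypsin digestion.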

Compound | Liganded (FAM120A Res# 919, uniprot Q9NZB2) | 100 ave (uniprot Q9NZB2) | 500 Max (uniprot Q9NZB2) | 500 ave (uniprot Q9NZB2) | 100 Max (uniprot Q9NZB2, in % (unit assumed))
COc1ccc2c(c1)CCCN2C(=O)CCl [KB02] | YES |  |  |  | 
O=C(CCl)Nc1cc(C(F)(F)F)cc(C(F)(F)F)c1 [KBO3] |  | −8.925 | 55.62 | 55.62 | 13.09
